The results in this text go back to patent US20050008896A1, “Luminous organic compound and manufacturing method” (Orient Chemical Ind., Ltd., priority 2003, published 2005).

Structures are written as SMILES. Like-named read-outs stand apart in the source and are kept apart here.

Data set [1] in a line: Fluorescence (photoluminescence) intensity in ethanol, fluorescence spectrophotometer RF-5300PC. Format: physicochemical. The conditions noted are these: for Fluorescence Intensity / center of Luminous Wave: 25 mg of compound in 100 ml of ethanol; for Relative Value of Fluorescence Intensity, Relative Value (2) (Related to Metal Complex Intermediate 3): metal complex intermediate 3 regarded as 1.00. The procedure:
Fluorescence intensity of each obtained compound was measured in order to evaluate fluorescence property.
A method of the evaluation is as follows. 25 mg of each compound was dissolved in 100 ml of ethanol respectively. The fluorescence intensity, photoluminescence intensity, was measured by a fluorescence spectrophotometer RF-5300PC that is available from Shimadzu Corporation. The measured results of the luminous organic compounds 1 to 9 and 11, the comparative compounds 1 to 3 and the metal complex intermediate 1 to 3 are indicated in Table 3. […] The relative value (2) of the fluorescence intensity indicates the value related to the fluorescence intensity of the metal complex intermediate 3 regarded as 1.00.

The conditions of data set [2]: stood at room temperature overnight.
Method: A method of measurement of the solubility is as follows. After the prescribed amount of the compound was added to each solvent, it was heated by water bath and irradiated supersonic wave for 1 hour. It was stood at room temperature overnight, and filtrated. Obtained residue was dried. Amount of insoluble residue was weighed, and solubility (w/v %) was determined.

On to `C[N+](C)(C)c1ccc(C(c2ccc([N+](C)(C)C)cc2)c2ccc([N+](C)(C)C)cc2)cc1.O=C(C=C([O-])C(F)(F)F)c1ccc2ccccc2c1.O=C(C=C([O-])C(F)(F)F)c1ccc2ccccc2c1.O=C(C=C([O-])C(F)(F)F)c1ccc2ccccc2c1.O=C(C=C([O-])C(F)(F)F)c1ccc2ccccc2c1.O=C(C=C([O-])C(F)(F)F)c1ccc2ccccc2c1.O=C(C=C([O-])C(F)(F)F)c1ccc2ccccc2c1.O=C(C=C([O-])C(F)(F)F)c1ccc2ccccc2c1.O=C(C=C([O-])C(F)(F)F)c1ccc2ccccc2c1.O=C(C=C([O-])C(F)(F)F)c1ccc2ccccc2c1.O=C(C=C([O-])C(F)(F)F)c1ccc2ccccc2c1.O=C(C=C([O-])C(F)(F)F)c1ccc2ccccc2c1.O=C(C=C([O-])C(F)(F)F)c1ccc2ccccc2c1.[Eu+3].[Eu+3].[Eu+3]` [Luminous Organic Compound 7], for which, in data set [1], the “Fluorescence Intensity” value was 835; the “center of Luminous Wave” value is listed as “(613 nm)”; the “Relative Value of Fluorescence Intensity, Relative Value (2) (Related to Metal Complex Intermediate 3)” value is 1.69. Also, the “Relative Value of Fluorescence Intensity, Relative Value (1) (Related to Comparative Compound 3)” value in data set [1] (comparative compound 3 regarded as 1.00) is given as 1.66. Further, in data set [2], the “Solubility, Ethanol” value came to 0.16 w/v %; the “Solubility, Ethyl Acetate” value is listed as 10.0 w/v %; the “Solubility, Methyl Ethyl Ketone” value is given as “over 10.0 w/v %”; the “Solubility, Toluene” value amounted to 0.14 w/v %. The “Solubility, Xylene” value in data set [2] is recorded as 0.16 w/v %.
With `C[N+](C)(C)CCCC[N+](C)(C)C.O=C(C=C([O-])C(F)(F)F)c1cccs1.O=C(C=C([O-])C(F)(F)F)c1cccs1.O=C(C=C([O-])C(F)(F)F)c1cccs1.O=C(C=C([O-])C(F)(F)F)c1cccs1.O=C(C=C([O-])C(F)(F)F)c1cccs1.O=C(C=C([O-])C(F)(F)F)c1cccs1.O=C(C=C([O-])C(F)(F)F)c1cccs1.O=C(C=C([O-])C(F)(F)F)c1cccs1.[Eu+3].[Eu+3]` [Luminous Organic Compound 8], in data set [1], the “Relative Value of Fluorescence Intensity, Relative Value (1) (Related to Comparative Compound 3)” value was 1.02; the “Fluorescence Intensity” value is recorded as 510; the “center of Luminous Wave” value is given as “(613 nm)”; the “Relative Value of Fluorescence Intensity, Relative Value (2) (Related to Metal Complex Intermediate 3)” value was 1.03. In data set [2], the “Solubility, Ethanol” value is 0.15 w/v %; the “Solubility, Ethyl Acetate” value is 0.88 w/v %; the “Solubility, Methyl Ethyl Ketone” value is listed as “over 10.0 w/v %”; the “Solubility, Toluene” value turned out to be 0.18 w/v %. Besides, in data set [2], the “Solubility, Xylene” value worked out at 0.10 w/v %.
With `C[N+](C)(C)CCCC[N+](C)(C)C.O=C(C=C([O-])C(F)(F)F)c1ccccc1.O=C(C=C([O-])C(F)(F)F)c1ccccc1.O=C(C=C([O-])C(F)(F)F)c1ccccc1.O=C(C=C([O-])C(F)(F)F)c1ccccc1.O=C(C=C([O-])C(F)(F)F)c1ccccc1.O=C(C=C([O-])C(F)(F)F)c1ccccc1.O=C(C=C([O-])C(F)(F)F)c1ccccc1.O=C(C=C([O-])C(F)(F)F)c1ccccc1.[Eu+3].[Eu+3]` [Luminous Organic Compound 9], in data set [1], the “Relative Value of Fluorescence Intensity, Relative Value (1) (Related to Comparative Compound 3)” value stood at 1.00; the “Fluorescence Intensity” value is listed as 502; the “center of Luminous Wave” value is recorded as “(612 nm)”; the “Relative Value of Fluorescence Intensity, Relative Value (2) (Related to Metal Complex Intermediate 3)” value stood at 1.02. For the same compound, in data set [2], the “Solubility, Ethanol” value is recorded as 0.11 w/v %; the “Solubility, Ethyl Acetate” value is on record as 3.55 w/v %; the “Solubility, Methyl Ethyl Ketone” value is listed as “over 10.0 w/v %”; the “Solubility, Toluene” value came out at 0.30 w/v %. For the same compound, the “Solubility, Xylene” value in data set [2] came out at 0.12 w/v %.
On to `C[N+](C)(C)CCCC[N+](C)(C)C.O=C(C=C([O-])C(F)(F)F)c1ccc2ccccc2c1.O=C(C=C([O-])C(F)(F)F)c1ccc2ccccc2c1.O=C(C=C([O-])C(F)(F)F)c1ccc2ccccc2c1.O=C(C=C([O-])C(F)(F)F)c1ccc2ccccc2c1.O=C(C=C([O-])C(F)(F)F)c1ccc2ccccc2c1.O=C(C=C([O-])C(F)(F)F)c1ccc2ccccc2c1.O=C(C=C([O-])C(F)(F)F)c1ccc2ccccc2c1.O=C(C=C([O-])C(F)(F)F)c1ccc2ccccc2c1.[Al+3].[Al+3]` [Luminous Organic Compound 11], for which, in data set [1], the “Relative Value of Fluorescence Intensity, Relative Value (1) (Related to Comparative Compound 3)” value came out at 0.52; the “Fluorescence Intensity” value turned out to be 262; the “center of Luminous Wave” value is “(455 nm)”; the “Relative Value of Fluorescence Intensity, Relative Value (2) (Related to Metal Complex Intermediate 3)” value was determined as 0.53. Also, in data set [2], the “Solubility, Ethanol” value worked out at 0.21 w/v %; the “Solubility, Ethyl Acetate” value was found to be 1.60 w/v %; the “Solubility, Methyl Ethyl Ketone” value was “over 10.0 w/v %”; the “Solubility, Toluene” value came out at 0.25 w/v %. Moreover, the “Solubility, Xylene” value in data set [2] is recorded as 0.10 w/v %.
